# Test results from patent US20030229451A1, “Methods and systems for analyzing complex biological systems” (priority 2001, published 2003).
# System: Saccharomyces cerevisiae wild type strain BY4743
# Assay: AF1 metabolite analysis (GC-MS, LC-MS) of yeast cells treated with antifungal drugs
# Assay type: cell-based
# Conditions: for # Compounds perturbed: 2x MIC, two hours
smiles,measurement,setting,value
OC(Cn1cncn1)(Cn1cncn1)c1ccc(F)cc1F [Fluconazole],# Compounds perturbed,P < 0.05,2
same,# Compounds perturbed,P < 0.1,6
same,"Fold Change, alanine",platform GC,0.3084
same,"Fold Change, asparagine",platform GC,0.3999
same,"Fold Change, aspartic acid",platform GC,0.4337
same,"Fold Change, campesterol",platform GC,0
same,"Fold Change, desmosterol",platform GC,0
same,"Fold Change, disaccaride1",platform GC,0.3883
same,"Fold Change, disaccaride2",platform GC,0.1517
same,"Fold Change, disaccaride3",platform GC,0.5803
same,"Fold Change, ergosterol",platform GC,0.948
same,"Fold Change, fucosterol",platform GC,6.665
same,"Fold Change, glutamine",platform GC,0.5242
same,"Fold Change, glycanopyrose",platform GC,1.202
same,"Fold Change, glycerol",platform GC,0.2187
same,"Fold Change, glycine",platform GC,−0.1037
same,"Fold Change, hexadecanoic acid",platform GC,0.1343
same,"Fold Change, iso citric acid",platform GC,0.3923
same,"Fold Change, isoleucine",platform GC,0.391
same,"Fold Change, lanosterol",platform GC,8.462
same,"Fold Change, leucine",platform GC,0.3387
same,"Fold Change, lysine",platform GC,0.3412
same,"Fold Change, malic acid",platform GC,0.3975
same,"Fold Change, mevalonic acid lactone",platform GC,0.2333
same,"Fold Change, octadecanoic acid",platform GC,0.082
same,"Fold Change, oleic acid",platform GC,−0.3073
same,"Fold Change, ornithine2",platform GC,0.4473
same,"Fold Change, ornithine3",platform GC,0.2647
same,"Fold Change, palmiteliadic acid",platform GC,−0.08867
same,"Fold Change, phenylalanine",platform GC,0.2774
same,"Fold Change, phosphate",platform GC,−0.508
same,"Fold Change, pyrimidine",platform GC,0.2457
same,"Fold Change, 2-ketobutyric acid",platform nLC,−0.9992
same,"Fold Change, 2-ketoglutaric",platform nLC,−0.9995
same,"Fold Change, 3-indolylacetonitri",platform nLC,−0.9998
same,"Fold Change, 4-methylcatechol",platform nLC,0
same,"Fold Change, 4aminobutyrate/dimg",platform nLC,0.1384
same,"Fold Change, 5hydroxyLtryptophan",platform nLC,0
same,"Fold Change, 6-benzylaminopurine",platform nLC,0
same,"Fold Change, DLaminoadipic acid",platform nLC,0.443
same,"Fold Change, NacetylDglucosamine",platform nLC,0
same,"Fold Change, NacetylLglutamate",platform nLC,0.1369
same,"Fold Change, NacetylLornithine",platform nLC,0
same,"Fold Change, abscisic acid",platform nLC,0
same,"Fold Change, aconitic acid",platform nLC,0.6483
same,"Fold Change, adenine",platform nLC,0
same,"Fold Change, adenosine",platform nLC,0
same,"Fold Change, alanine",platform nLC,0.399
same,"Fold Change, allantoic acid",platform nLC,0.2392
same,"Fold Change, allantoin",platform nLC,0.3942
same,"Fold Change, anthranilic acid",platform nLC,0
same,"Fold Change, arginine",platform nLC,0.6484
same,"Fold Change, argininosuccinate",platform nLC,0
same,"Fold Change, asparagine",platform nLC,0.3545
same,"Fold Change, aspartic",platform nLC,0.4993
same,"Fold Change, benzoic acid",platform nLC,0.
same,"Fold Change, biotin",platform nLC,0.3455
same,"Fold Change, caffeic acid",platform nLC,−0.4711
same,"Fold Change, catechol",platform nLC,0
same,"Fold Change, cinnamic acid",platform nLC,0
same,"Fold Change, citricanoic/itaconi.",platform nLC,0
same,"Fold Change, citrulline",platform nLC,0
same,"Fold Change, coumaric acid",platform nLC,0
same,"Fold Change, cytidine",platform nLC,−0.7969
same,"Fold Change, cytosine",platform nLC,0
same,"Fold Change, decanoic acid",platform nLC,0.1846
same,"Fold Change, diaminopimelic acid",platform nLC,0
same,"Fold Change, dihydrofolic acid",platform nLC,0
same,"Fold Change, estrone",platform nLC,0
same,"Fold Change, farnesol",platform nLC,0
same,"Fold Change, folic acid",platform nLC,0
same,"Fold Change, fumaric/3m2oxobutan",platform nLC,0.6009
same,"Fold Change, gallic acid",platform nLC,0.5071
same,"Fold Change, gibberellic",platform nLC,0
same,"Fold Change, glucosamine6PO4",platform nLC,−0.9951
same,"Fold Change, glutamic/acetylseri",platform nLC,0.3842
same,"Fold Change, glutamine/lysine",platform nLC,0.3309
same,"Fold Change, guanine",platform nLC,0
same,"Fold Change, guanosine",platform nLC,−0.993
same,"Fold Change, histidine",platform nLC,0
same,"Fold Change, homogentisic/uric",platform nLC,0
same,"Fold Change, hydrocortisone",platform nLC,0
same,"Fold Change, hypoxanthine",platform nLC,0.7757
same,"Fold Change, indole3pyruvic acid",platform nLC,0
same,"Fold Change, inostol/glucos/sorb",platform nLC,−0.4744
same,"Fold Change, isocitric/citric/qu",platform nLC,1.457
same,"Fold Change, jasmonic acid",platform nLC,0
same,"Fold Change, kinetin",platform nLC,0
same,"Fold Change, lactic acid",platform nLC,−0.0439
same,"Fold Change, lauric acid",platform nLC,0.3906
same,"Fold Change, leucine/isoleucine/",platform nLC,0.3306
same,"Fold Change, luteolin",platform nLC,0
same,"Fold Change, malic acid",platform nLC,0.4366
same,"Fold Change, malonic acid",platform nLC,0
same,"Fold Change, menthol*",platform nLC,0.04758
same,"Fold Change, methionine",platform nLC,0
same,"Fold Change, nicotinic acid",platform nLC,2.443
same,"Fold Change, nopaline",platform nLC,0.3432
same,"Fold Change, oleic acid",platform nLC,−0.01684
same,"Fold Change, ornithine",platform nLC,0.3508
same,"Fold Change, orotic acid",platform nLC,0
same,"Fold Change, palmitic acid",platform nLC,−0.0233
same,"Fold Change, phenylalanine",platform nLC,0.1527
same,"Fold Change, phenylpyruvic acid",platform nLC,0
same,"Fold Change, phosphoenolpyruvate",platform nLC,0
same,"Fold Change, pinitol",platform nLC,0
same,"Fold Change, pipecolic acid",platform nLC,0.2901
same,"Fold Change, porphobilinogen",platform nLC,0
same,"Fold Change, proline",platform nLC,0.4164
same,"Fold Change, pyridoxine",platform nLC,−0.04201
same,"Fold Change, 4-aminobenzoic acid",platform pLC,0
same,"Fold Change, 4-methylcatechol",platform pLC,0
same,"Fold Change, 4ambutyrate/dimglyc",platform pLC,−0.4383
same,"Fold Change, 5hydroxyLtryptophan",platform pLC,0
same,"Fold Change, 6benzylaminopurine",platform pLC,0
same,"Fold Change, DL-aminoadipic acid",platform pLC,0.1155
same,"Fold Change, NacetylDglucosamine",platform pLC,0
same,"Fold Change, NacetylLglutamate",platform pLC,0
same,"Fold Change, NacetylLornithine",platform pLC,0.1584
same,"Fold Change, abscisic acid",platform pLC,0
same,"Fold Change, adenine",platform pLC,−0.09439
same,"Fold Change, adenosine",platform pLC,0
same,"Fold Change, alanine/sarcosine",platform pLC,0.1269
same,"Fold Change, allantoic acid",platform pLC,0
same,"Fold Change, anthranilic acid",platform pLC,0
same,"Fold Change, arginine",platform pLC,0.1179
same,"Fold Change, argininosuccinate",platform pLC,0
same,"Fold Change, asparagine",platform pLC,0.3192
same,"Fold Change, aspartic acid",platform pLC,0.214
same,"Fold Change, biotin",platform pLC,0
same,"Fold Change, caffeine",platform pLC,0
same,"Fold Change, citric acid TME",platform pLC,0
same,"Fold Change, citrulline",platform pLC,0.08252
same,"Fold Change, cytidine",platform pLC,0
same,"Fold Change, cytosine",platform pLC,0
same,"Fold Change, diaminopimelic acid",platform pLC,0
same,"Fold Change, dihydrofolic acid",platform pLC,0
same,"Fold Change, dipicolinic acid",platform pLC,0
same,"Fold Change, folic acid",platform pLC,0
same,"Fold Change, glucosamine",platform pLC,0
same,"Fold Change, glucosamine6PO4",platform pLC,0
same,"Fold Change, glutamate",platform pLC,−0.06179
same,"Fold Change, glutamine/lysine",platform pLC,0.2242
same,"Fold Change, glutathione",platform pLC,−0.05832
same,"Fold Change, guanosine",platform pLC,−0.9981
same,"Fold Change, histidine",platform pLC,0
same,"Fold Change, hydrocortisone",platform pLC,0
same,"Fold Change, hypoxanthine",platform pLC,0.1298
same,"Fold Change, itaconic acid dimes",platform pLC,0
same,"Fold Change, kinetin",platform pLC,0
same,"Fold Change, leucine/isoleucine/",platform pLC,0.1638
same,"Fold Change, luteolin",platform pLC,0
same,"Fold Change, mannitol",platform pLC,0.152
same,"Fold Change, methionine",platform pLC,−0.2906
same,"Fold Change, mevalonic lactone",platform pLC,−0.5175
same,"Fold Change, niacinamide",platform pLC,0
same,"Fold Change, nicotinic acid",platform pLC,−0.7982
same,"Fold Change, nopaline",platform pLC,0
same,"Fold Change, ornithine",platform pLC,0.4775
same,"Fold Change, phenylalanine",platform pLC,−0.1809
same,"Fold Change, phosphoenolpyruvate",platform pLC,0
same,"Fold Change, pipecolic acid",platform pLC,0.2583
same,"Fold Change, progesterone",platform pLC,0
same,"Fold Change, proline",platform pLC,0.2075
same,"Fold Change, pyridoxine",platform pLC,−0.3831
